In patent US11952388B2, “Crystal form of tri-cycle compound and application thereof” (FUJIAN AKEYLINK BIOTECHNOLOGY CO., LTD., priority 2018, dated 2024):

Test: Pre-stability (solid stability) test of crystal form B, HPLC analysis
Assay type: physicochemical
Procedure: [table] Note: • X indicates testing items, including: XRPD, content and related substances, day 0 samples were stored at −20° C.; • ICH indicate the illumination condition that guides the placement of the samples, i.e., illumination (total illuminance=1.2×10^6 Lux·hr/near ultraviolet=200 w·hr/m^2, with the lid open). About 10 mg of the crystal form B of the compound represented by formula (I) was weighed and placed at the bottom of a 40 mL glass bottle, and spread into a thin layer. The bottleneck was wrapped with aluminum foil paper (except for illuminated samples), and some small holes were punctured on the aluminum foil paper to ensure that the samples can fully contact the ambient air. The illuminated sample was placed at the bottom of a 40 mL glass bottle, which was placed vertically in the illuminated box with the lid open; the control sample was placed at the bottom of glass vials, which was placed vertically with the lid open, and wrapped with tin foil to protect it from light. Under each condition, 2 aliquots of sample were weighed in parallel at each time point, and an additional appropriate amount of sample (not weighed) was taken for XRPD detection. The prepared samples were placed under various conditions shown in the following Table, and samples were analyzed respectively by HPLC after reaching the time points. 1.1 Preparation of Diluent and Mobile Phase • Diluent: Acetonitrile:Water (2:1) • Example: 1000 mL of acetonitrile and 500 mL of water were mixed evenly, ultrasonically degassed, and cooled to room temperature. • Mobile phase A: 0.1% trifluoroacetic acid aqueous solution • Example: 2.0 mL of trifluoroacetic acid was added to 2 L of water and mixed well, ultrasonically degassed, and cooled to room temperature. • Mobile phase B: 100% acetonitrile The crystal form B of compound represented by formula (I) was used as control. The crystal form B of compound represented by formula (I) was placed in a glass bottle, then 5 mL of diluent was added into the bottle to a concentration of 1 mg/mL, and the solution was mix well ultrasonically. And then the mixture was diluted 5 times to obtain the control sample solution STD1. STD1 was diluted 1, 2, 4, 20 and 200 times to prepare a 1% control solution. Diluent was added to each test sample to a concentration of 10 mL, then the samples were ultrasonically dissolved. HPLC test was performed after cooling to room temperature. Meanwhile, the sample solution was diluted 5 times and mixed well, and then tested by HPLC. [table]

[1] = Illumination of Control (light-proof)

Q: What does the source list for Cc1cc2n(c1)S(=O)(=O)c1ccc(C(=O)NCC[C@H]3COCCO3)cc1NC2=O?
A: Assay (content of the sample) (40° C., 75% humidity, 1 month): 100.6%; TRS (sum of impurities) (40° C., 75% humidity, 1 month): 1.20%; impurity at relative retention time 0.87 (40° C., 75% humidity, 1 month): 0.34%; impurity at relative retention time 1.07 (40° C., 75% humidity, 1 month): 0.07%; impurity at relative retention time 1.12 (40° C., 75% humidity, 1 month): 0.65%; impurity at relative retention time 1.14 (40° C., 75% humidity, 1 month): 0.13%; Assay (content of the sample) (40° C., 75% humidity, 10 days): 100.7%; TRS (sum of impurities) (40° C., 75% humidity, 10 days): 1.19%; impurity at relative retention time 0.87 (40° C., 75% humidity, 10 days): 0.34%; impurity at relative retention time 1.07 (40° C., 75% humidity, 10 days): 0.06%; impurity at relative retention time 1.12 (40° C., 75% humidity, 10 days): 0.65%; impurity at relative retention time 1.14 (40° C., 75% humidity, 10 days): 0.13%; Assay (content of the sample) (60° C., 75% humidity, 1 month): 100.3%; TRS (sum of impurities) (60° C., 75% humidity, 1 month): 1.21%; impurity at relative retention time 0.87 (60° C., 75% humidity, 1 month): 0.35%; impurity at relative retention time 1.07 (60° C., 75% humidity, 1 month): 0.07%; impurity at relative retention time 1.12 (60° C., 75% humidity, 1 month): 0.65%; impurity at relative retention time 1.14 (60° C., 75% humidity, 1 month): 0.13%; Assay (content of the sample) (60° C., 75% humidity, 10 days): 101.4%; TRS (sum of impurities) (60° C., 75% humidity, 10 days): 1.20%; impurity at relative retention time 0.87 (60° C., 75% humidity, 10 days): 0.35%; impurity at relative retention time 1.07 (60° C., 75% humidity, 10 days): 0.07%; impurity at relative retention time 1.12 (60° C., 75% humidity, 10 days): 0.65%; impurity at relative retention time 1.14 (60° C., 75% humidity, 10 days): 0.13%; Assay (content of the sample) (60° C., 5 days): 100.1%; TRS (sum of impurities) (60° C., 5 days): 1.19%; impurity at relative retention time 0.87 (60° C., 5 days): 0.35%; impurity at relative retention time 1.07 (60° C., 5 days): 0.07%; impurity at relative retention time 1.12 (60° C., 5 days): 0.65%; impurity at relative retention time 1.14 (60° C., 5 days): 0.13%; Assay (content of the sample) (60° C., 10 days): 100.1%; TRS (sum of impurities) (60° C., 10 days): 1.21%; impurity at relative retention time 0.87 (60° C., 10 days): 0.36%; impurity at relative retention time 1.07 (60° C., 10 days): 0.07%; impurity at relative retention time 1.12 (60° C., 10 days): 0.65%; impurity at relative retention time 1.14 (60° C., 10 days): 0.13%; Assay (content of the sample) (92.5% humidity, 5 days): 100.0%; TRS (sum of impurities) (92.5% humidity, 5 days): 1.21%; impurity at relative retention time 0.87 (92.5% humidity, 5 days): 0.36%; impurity at relative retention time 1.07 (92.5% humidity, 5 days): 0.07%; impurity at relative retention time 1.12 (92.5% humidity, 5 days): 0.65%; impurity at relative retention time 1.14 (92.5% humidity, 5 days): 0.13%; Assay (content of the sample) (92.5% humidity, 10 days): 100.7%; TRS (sum of impurities) (92.5% humidity, 10 days): 1.20%; impurity at relative retention time 0.87 (92.5% humidity, 10 days): 0.35%; impurity at relative retention time 1.07 (92.5% humidity, 10 days): 0.06%; impurity at relative retention time 1.12 (92.5% humidity, 10 days): 0.65%; impurity at relative retention time 1.14 (92.5% humidity, 10 days): 0.13%; Assay (content of the sample) (Day 0): 100.5%; TRS (sum of impurities) (Day 0): 1.20%; impurity at relative retention time 0.87 (Day 0): 0.35%; impurity at relative retention time 1.07 (Day 0): 0.06%; impurity at relative retention time 1.12 (Day 0): 0.65%; impurity at relative retention time 1.14 (Day 0): 0.14%; Assay (content of the sample) (Illumination (1 ICH, lid open)): 83.5%; TRS (sum of impurities) (Illumination (1 ICH, lid open)): 9.50%; impurity at relative retention time 0.16 (Illumination (1 ICH, lid open)): 0.07%; impurity at relative retention time 0.19 (Illumination (1 ICH, lid open)): 0.32%; impurity at relative retention time 0.24 (Illumination (1 ICH, lid open)): 0.12%; impurity at relative retention time 0.26 (Illumination (1 ICH, lid open)): 0.12%; impurity at relative retention time 0.31 (Illumination (1 ICH, lid open)): 0.12%; impurity at relative retention time 0.36 (Illumination (1 ICH, lid open)): 0.19%; impurity at relative retention time 0.38 (Illumination (1 ICH, lid open)): 0.08%; impurity at relative retention time 0.60 (Illumination (1 ICH, lid open)): 0.28%; impurity at relative retention time 0.62 (Illumination (1 ICH, lid open)): 0.12%; impurity at relative retention time 0.70 (Illumination (1 ICH, lid open)): 0.10%; impurity at relative retention time 0.78 (Illumination (1 ICH, lid open)): 0.16%; impurity at relative retention time 0.79 (Illumination (1 ICH, lid open)): 0.24%; impurity at relative retention time 0.82 (Illumination (1 ICH, lid open)): 2.26%; impurity at relative retention time 0.87 (Illumination (1 ICH, lid open)): 4.49%; impurity at relative retention time 0.89 (Illumination (1 ICH, lid open)): 0.07%; impurity at relative retention time 0.90 (Illumination (1 ICH, lid open)): 0.07%; impurity at relative retention time 1.07 (Illumination (1 ICH, lid open)): <0.05%; impurity at relative retention time 1.12 (Illumination (1 ICH, lid open)): 0.52%; impurity at relative retention time 1.14 (Illumination (1 ICH, lid open)): 0.12%; impurity at relative retention time 1.42 (Illumination (1 ICH, lid open)): 0.06%; Assay (content of the sample) [1]: 100.3%; TRS (sum of impurities) [1]: 1.18%; impurity at relative retention time 0.87 [1]: 0.34%; impurity at relative retention time 1.07 [1]: 0.07%; impurity at relative retention time 1.12 [1]: 0.64%; impurity at relative retention time 1.14 [1]: 0.13%; solid stability (conclusion in words) (high temperature and high humidity conditions): stable under high temperature and high humidity conditions
